Data published in publication PMC5404560, “Towards Selective Mycobacterial ClpP1P2 Inhibitors with Reduced Activity against the Human Proteasome” (Antimicrobial Agents and Chemotherapy, 2017).
Converted amounts (≈) assume the structure as drawn. “And” between values parts separate entries of the source, which are not always exact repeats. Equal values may be shown once. Read-outs that look alike come from different tables or passages of the source.

Legend:
[1] = target: T1, Cathepsin G (Homo sapiens, UniProt P08311); test: Protease panel: Cathepsin G; format: biochemical; conditions: supplement panel table, test and control compound
T1 construct: Reaction Biology Corporation (contract testing)
T1 sequence (P08311 21-255, species assumed): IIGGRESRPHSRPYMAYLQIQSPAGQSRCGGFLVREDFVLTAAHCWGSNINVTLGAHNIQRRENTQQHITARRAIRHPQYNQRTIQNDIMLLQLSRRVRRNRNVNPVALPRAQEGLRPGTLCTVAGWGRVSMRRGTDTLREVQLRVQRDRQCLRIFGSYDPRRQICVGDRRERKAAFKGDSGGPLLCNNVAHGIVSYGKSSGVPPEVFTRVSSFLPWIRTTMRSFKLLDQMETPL
Experimental: (§2) Protease panel testing was carried out by Reaction Biology Corporation.

[2] = target: Chymase (Homo sapiens, UniProt P23946); test: Protease panel: Chymase; format: biochemical; conditions: supplement panel table, test and control compound
Chain of Chymase (P23946 22-247, species assumed): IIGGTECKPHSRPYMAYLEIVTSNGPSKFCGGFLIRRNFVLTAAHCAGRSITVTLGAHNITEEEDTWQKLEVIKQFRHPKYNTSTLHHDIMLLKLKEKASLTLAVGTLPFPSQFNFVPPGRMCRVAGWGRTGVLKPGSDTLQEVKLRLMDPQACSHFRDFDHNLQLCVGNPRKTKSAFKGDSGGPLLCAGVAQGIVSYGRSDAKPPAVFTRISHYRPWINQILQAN
Experimental: as §2

[3] = system: M. smegmatis ΔprcAB; format: cell-based; conditions: 24 h exposure, OD600; concentration inhibiting 50% of growth
[4] = system: M. smegmatis wild-type; test: Growth inhibition, M. smegmatis wild type; format: cell-based; conditions: Mycolicibacterium smegmatis; wild-type strain
[5] = system: M. tuberculosis H37Rv; test: microbe, parasite or virus in culture; format: cell-based; conditions: for MIC50 / MIC90: Mycobacterium tuberculosis, H37RV, 120 h; for MIC50: read-out: MIC50 (μM) against M. tuberculosis H37Rv; for MIC90: read-out: MIC90 (μM) against M. tuberculosis H37Rv
[6] = system: Mycobacterium bovis BCG; test: microbe, parasite or virus in culture; format: cell-based; conditions: Mycobacterium tuberculosis variant bovis BCG, read-out: MIC50 for Mycobacterium bovis BCG
[7] = MTS cytotoxicity assay, Vero; format: cell-based; conditions: African green monkey
Experimental: (§1) The MTS (Promega) reduction assay was used according to manufacturer's guidelines to assess Vero (ATCC […]) and HepG2 (ATCC HB-8065) cell viability. […] Carbonyl cyanide m-chlorophenylhydrazone (CCCP) was used as a cytotoxic positive control. Cytotoxicity was determined twice in independent experiments.

[8] = MTS cytotoxicity assay, HepG2; format: cell-based, human; conditions: human
Experimental: as §1

[9] = target: ClpP1P2 (Mycolicibacterium smegmatis, UniProt A0R197+A0R198); test: ClpP1P2 inhibition whole-cell RFP-SsrA reporter assay; conditions: 3 h incubation
Chain of ClpP1P2 (A0R198 4-203): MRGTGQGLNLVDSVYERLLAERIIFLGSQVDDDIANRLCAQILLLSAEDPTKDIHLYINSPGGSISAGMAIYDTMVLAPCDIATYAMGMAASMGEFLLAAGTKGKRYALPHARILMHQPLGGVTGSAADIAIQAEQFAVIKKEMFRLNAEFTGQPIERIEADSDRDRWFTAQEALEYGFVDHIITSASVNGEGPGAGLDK
Chain of ClpP1P2 (A0R197 17-218): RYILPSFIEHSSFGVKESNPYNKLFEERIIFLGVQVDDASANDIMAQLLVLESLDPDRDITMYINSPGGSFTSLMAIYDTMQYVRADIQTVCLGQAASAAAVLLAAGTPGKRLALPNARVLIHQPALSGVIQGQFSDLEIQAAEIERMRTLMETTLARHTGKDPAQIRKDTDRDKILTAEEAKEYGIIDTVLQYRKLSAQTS

[10] = target: HepG2 proteasome (Homo sapiens, UniProt P20618+P28074); test: Cell-based proteasome CT-like peptidase inhibition assay (Proteasome-Glo)
Experimental: A cell-based CT-like peptidase assay was performed using the Proteasome-Glo cell-based assay reagent (Promega) according to the manufacturer's guidelines. Briefly, HepG2 cells (10^4 cells/well) were treated with the compounds indicated in the figures for 2 h, followed by incubation with the luminescent substrate for 10 min. Luminescence was detected with a Tecan M200 Pro plate reader.

[11] = M. smegmatis ΔprcAB IC50 (μM) for ClpP1P2, whole-cell RFP-SsrA reporter

Compound: CC(C)C[C@H](NC(=O)[C@@H](NC(=O)N[C@@H](Cc1ccccc1)C(=O)O)[C@@H]1CCN=C(N)N1)C(=O)N[C@H](C=O)Cc1ccccc1 [Chymostatin, reference compound]
- IC50 [1]: 3.83 µM
- IC50 [2]: 0.0915 µM

Compound: CC(C)C[C@H](NC(=O)[C@H](Cc1ccccc1)NC(=O)c1cnccn1)B(O)O [Compound 1, bortezomib, reference compound]
- M. smegmatis ΔprcAB MIC50 [3]: 6 ± 0 µM
- MIC50 [4]: 5 µM (≈ 1.92 µg/mL)
- MIC50 ([5]; 5 days): 4.3 ± 1.3 µM (≈ 1.65 µg/mL)
- MIC90 ([5]; 5 days): 12 ± 0.5 µM (≈ 4.61 µg/mL)
- MIC50 [6]: 1.8 µM (≈ 0.692 µg/mL)
- GI50 [7]: 250 µM
- GI50 [8]: 400 µM
- IC50 ([9]; read-out: M. smegmatis ΔprcAB IC50 (μM) for ClpP1P2, whole-cell RFP-SsrA reporter): 6 ± 0.5 µM

Compound: O=C(N[C@@H](Cc1ccccc1)C(=O)N[C@@H](Cc1ccccc1)B(O)O)c1cnccn1 [Compound 31, ((R)-2-phenyl-1-((S)-3-phenyl-2-(pyrazine-2-carboxamido)propanamido)ethyl)boronic acid]
- M. smegmatis ΔprcAB MIC50 [3]: 16.5 µM and 16.5 ± 8.5 µM
- MIC50 ([5]; 5 days): 6 µM (≈ 2.51 µg/mL)
- MIC90 ([5]; 5 days): 20 µM (≈ 8.37 µg/mL)
- IC50 [9, 11]: 7.5 ± 2.6 µM
- IC50 [10]: 0.05 ± 0.01 µM

Compound: O=C(N[C@@H](Cc1ccccc1)C(=O)N[C@@H](CCc1ccccc1)B(O)O)c1cnccn1 [Compound 32, ((R)-3-phenyl-1-((S)-3-phenyl-2-(pyrazine-2-carboxamido)propanamido)propyl)boronic acid]
- M. smegmatis ΔprcAB MIC50 [3]: 7 ± 1 µM
- MIC50 ([5]; 5 days): 6 µM (≈ 2.59 µg/mL)
- MIC90 ([5]; 5 days): 25 µM (≈ 10.8 µg/mL)
- IC50 [9, 11]: 7.3 ± 1.9 µM
- IC50 [10]: 0.07 ± 0.01 µM

Compound: O=C(N[C@@H](Cc1ccccc1)C(=O)N[C@@H](CCc1ccccc1)B(O)O)c1ccccc1 [Compound 51, ((R)-1-((S)-2-benzamido-3-phenylpropanamido)-3-phenylpropyl)boronic acid]
- M. smegmatis ΔprcAB MIC50 [3]: 2.7 ± 0.5 µM
- MIC50 ([5]; 5 days): 1 ± 0.2 µM (≈ 0.43 µg/mL)
- MIC90 ([5]; 5 days): 6 ± 0.2 µM (≈ 2.58 µg/mL)
- IC50 [9, 11]: 1.5 ± 0.5 µM
- IC50 [10]: 0.167 ± 0.059 µM

Compound: O=C(N[C@@H](Cc1ccc(O)cc1)C(=O)N[C@@H](CCc1ccccc1)B(O)O)c1cnccn1 [Compound 57]
- M. smegmatis ΔprcAB MIC50 [3]: 8 ± 2.8 µM
- improvement of M. tuberculosis MIC50 over compound 1 [5]: 5 fold
- MIC50 (μM) against M. tuberculosis H37Rv ([5]; 5 days): 0.8 ± 0 µM (≈ 0.359 µg/mL)
- MIC50 ([5]; 5 days): 0.8 µM (≈ 0.359 µg/mL)
- MIC90 ([5]; 5 days): 3 µM (≈ 1.34 µg/mL)
- IC50 [9, 11]: 7.5 ± 4.5 µM
- IC50 [10]: 0.533 ± 0.103 µM
